Data taken from patent publication US4470993A, “Therapeutical use of known 5-aminomethyl oxazolidine-2-one derivatives” (Delalande S.A., priority 1982, dated 1984).

Key:
[1] = Acute toxicity, oral, in mice (Miller and Tainter); settings: mouse, in vivo, read-out: Acute toxicity LD 50
Experimental: The acute toxicity is determined orally on mice according to the method described by MILLER and TAINTER in Proc. Soc. Exp. Biol. Med. 57, 261 (1944).

[2] = test system: B type monoamine oxidase; assay: Ex vivo monoamine oxidase inhibition in rat brain homogenate, phenylethylamine substrate; parameters: unit not given here; settings: rats, 5 mg/kg p.o.; for Monoamine oxidase inhibition effect, B Type monoamine oxidase, 8 hours: 8 hours after administration; for Monoamine oxidase inhibition effect, B Type monoamine oxidase, 24 hours: 24 hours after administration; for Monoamine oxidase inhibition effect, B Type monoamine oxidase, max.: maximum effect observed between 30 minutes and 8 hours
Experimental: (§1) This activity has been shown ex vivo on rats to which are orally administered the compounds employed in the invention as a 0.5% suspension in methylcellulose. Then the rats are decapitated at various times (30 mn, 1 hour, 2 hours, 4 hours, 8 hours and 24 hours after the administration). The brains are taken up, weighed and homogeneized and the determination of the monoamine oxidase inhibition effect is carried out by using serotonine (specific substrate of the A type monoamine oxidase) and phenylethylamine (specific substrate of B type monoamine oxidase) according to the method described by J. P. KAN and M. STROLIN-BENEDETTI in Life Sciences 26, 2165 (1980).
(§2) To illustrate the invention, in table below the results thus obtained are given. (The maximum effect is that observed between 30 minutes and 8 hours).

[3] = test system: A type monoamine oxidase; assay: Ex vivo monoamine oxidase inhibition in rat brain homogenate, serotonine substrate; parameters: unit not given here; settings: rats, 5 mg/kg p.o.; for Monoamine oxidase inhibition effect, A Type monoamine oxidase, 8 hours: 8 hours after administration; for Monoamine oxidase inhibition effect, A Type monoamine oxidase, 24 hours: 24 hours after administration; for Monoamine oxidase inhibition effect, A Type monoamine oxidase, max.: maximum effect observed between 30 minutes and 8 hours
Experimental: as §1, §2

Row | SMILES | LD50 [1] | Monoamine oxidase inhibition effect, B Type monoamine oxidase, 8 hours [2] | Monoamine oxidase inhibition effect, B Type monoamine oxidase, 24 hours [2] | Monoamine oxidase inhibition effect, B Type monoamine oxidase, max. [2] | Monoamine oxidase inhibition effect, A Type monoamine oxidase, 8 hours [3] | Monoamine oxidase inhibition effect, A Type monoamine oxidase, 24 hours [3] | Monoamine oxidase inhibition effect, A Type monoamine oxidase, max. [3]
1 | NCC1CN(c2ccc(OCc3ccc(F)cc3)cc2)C(=O)O1 (stereo not shown) [p-fluorobenzyl, amino] | > 2000 mg/kg | 82 | 61 | 88 | 20 | 3 | 43
2 | NCC1CN(c2ccc(OCc3cccc(Cl)c3)cc2)C(=O)O1 (stereo not shown) [m-chlorobenzyl, amino] | > 2000 mg/kg | 85 | 67 | 88 | 18 | 6 | 30
3 | NCC1CN(c2ccc(OCC3CCCC3)cc2)C(=O)O1 (stereo not shown) [cyclopentylmethyl, amino] | > 2000 mg/kg | 17 | 2 | 78 | 9 | 0 | 30
4 | CC(C)CCOc1ccc(N2CC(CN)OC2=O)cc1 (stereo not shown) [3-methylbutyl, amino] | > 2000 mg/kg | 8 | 1 | 69 | 2 | 0 | 29
5 | CNCC1CN(c2ccc(OCc3cccc(Cl)c3)cc2)C(=O)O1 (stereo not shown) [m-chlorobenzyl, N--methylamino] | > 2000 mg/kg | 67 | 27 | 83 | 12 | 1 | 28
6 | CNCC1CN(c2ccc(OCC3CCCCC3)cc2)C(=O)O1 (stereo not shown) [cyclohexylmethyl, N--methylamino] | > 2000 mg/kg | 42 | 6 | 67 | 17 | 6 | 21
7 | NCC1CN(c2ccc(OCC3CCCCC3)cc2)C(=O)O1 (stereo not shown) [cyclohexylmethyl, amino] | > 2000 mg/kg | 60 | 3 | 81 | 13 | 5 | 23
8 | CNCC1CN(c2ccc(OCc3ccccc3)cc2)C(=O)O1 (stereo not shown) [benzyl, N--methylamino] | > 2000 mg/kg | 43 | 31 | 78 | 11 | 10 | 23
9 | NCC1CN(c2ccc(OCc3ccccc3)cc2)C(=O)O1 (stereo not shown) [benzyl, amino] | > 2000 mg/kg | 69 | 45 | 85 | 4 | 4 | 19
10 | CNCC1CN(c2ccc(OCc3ccc(F)cc3)cc2)C(=O)O1 (stereo not shown) [p-fluorobenzyl, N--methylamino] | > 2000 mg/kg | 63 | 27 | 85 | 23 | 0 | 44
